# Results as given in the supplement of paper PMC10307832.
# What was measured:
# Test in all cases: relative viability (nuclei count vs DMSO), 5 days (fraction); higher = more cells survive
# [1] = system: LCLC-103H
# Summary of the method: (§1)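 Five library-drug doses in √10 steps were combined with a fixed anchor-drug dose, or a single drug was given alone, by pin tool to lung cancer cell lines in 1536-well plates the day after seeding. Nuclei were stained and counted after 5 days. Relative viability is the nuclei count in treated wells over that in vehicle wells, taken as the median of duplicate plates.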
# [2] = system: UMC-11
# Summary of the method: as §1
# [3] = system: HCC-15
# Summary of the method: as §1
# [4] = system: NCI-H522
# Summary of the method: as §1
# [5] = system: NCI-H1623
# Summary of the method: as §1
# [6] = system: NCI-H1648
# Summary of the method: as §1
structure (smiles),measurement,setting,value
CC1(C)CCC(c2ccc(Cl)cc2)=C(CN2CCN(c3ccc(C(=O)NS(=O)(=O)c4ccc(N[C@H](CCN5CCOCC5)CSc5ccccc5)c(S(=O)(=O)C(F)(F)F)c4)cc3)CC2)C1 [Navitoclax] + COc1cccc2cc(-c3nc([C@H]4CC[C@H](C(=O)O)CC4)n4ncnc(N)c34)[nH]c12 [OSI-027] (partner 0.5 µM),relative viability,[1]; first compound 0.005 µM,0.462
same,relative viability,[1]; first compound 0.01581 µM,0.449
same,relative viability,[1]; first compound 0.05 µM,0.399
same,relative viability,[1]; first compound 0.1581 µM,0.479
same,relative viability,[1]; first compound 0.5 µM,0.533
same,relative viability,[2]; first compound 0.005 µM,0.462
same,relative viability,[2]; first compound 0.01581 µM,0.501
same,relative viability,[2]; first compound 0.05 µM,0.471
same,relative viability,[2]; first compound 0.1581 µM,0.422
same,relative viability,[2]; first compound 0.5 µM,0.234
same,relative viability,[3]; first compound 0.005 µM,0.695
same,relative viability,[3]; first compound 0.01581 µM,0.746
same,relative viability,[3]; first compound 0.05 µM,0.573
same,relative viability,[3]; first compound 0.1581 µM,0.699
same,relative viability,[3]; first compound 0.5 µM,0.624
same,relative viability,[4]; first compound 0.005 µM,0.605
same,relative viability,[4]; first compound 0.01581 µM,0.705
same,relative viability,[4]; first compound 0.05 µM,0.702
same,relative viability,[4]; first compound 0.1581 µM,0.685
same,relative viability,[4]; first compound 0.5 µM,0.747
same,relative viability,[5]; first compound 0.005 µM,0.419
same,relative viability,[5]; first compound 0.01581 µM,0.376
same,relative viability,[5]; first compound 0.05 µM,0.369
same,relative viability,[5]; first compound 0.1581 µM,0.439
same,relative viability,[5]; first compound 0.5 µM,0.373
same,relative viability,[6]; first compound 0.005 µM,0.257
same,relative viability,[6]; first compound 0.01581 µM,0.256
same,relative viability,[6]; first compound 0.1581 µM,0.253
same,relative viability,[6]; first compound 0.5 µM,0.306
CC1(C)CCC(c2ccc(Cl)cc2)=C(CN2CCN(c3ccc(C(=O)NS(=O)(=O)c4ccc(N[C@H](CCN5CCOCC5)CSc5ccccc5)c(S(=O)(=O)C(F)(F)F)c4)cc3)CC2)C1 [Navitoclax] + Cc1cc(Nc2cc(N3CCN(C)CC3)nc(Sc3ccc(NC(=O)C4CC4)cc3)n2)n[nH]1 [Tozasertib] (partner 0.1 µM),relative viability,[1]; first compound 0.005 µM,0.505
same,relative viability,[1]; first compound 0.01581 µM,0.516
same,relative viability,[1]; first compound 0.05 µM,0.442
same,relative viability,[1]; first compound 0.1581 µM,0.404
same,relative viability,[1]; first compound 0.5 µM,0.466
same,relative viability,[2]; first compound 0.005 µM,0.196
same,relative viability,[2]; first compound 0.01581 µM,0.184
same,relative viability,[2]; first compound 0.05 µM,0.207
same,relative viability,[2]; first compound 0.1581 µM,0.2
same,relative viability,[2]; first compound 0.5 µM,0.188
same,relative viability,[3]; first compound 0.005 µM,0.428
same,relative viability,[3]; first compound 0.01581 µM,0.524
same,relative viability,[3]; first compound 0.05 µM,0.449
same,relative viability,[3]; first compound 0.1581 µM,0.481
same,relative viability,[3]; first compound 0.5 µM,0.467
same,relative viability,[4]; first compound 0.005 µM,0.574
same,relative viability,[4]; first compound 0.01581 µM,0.535
same,relative viability,[4]; first compound 0.05 µM,0.607
same,relative viability,[4]; first compound 0.1581 µM,0.631
same,relative viability,[4]; first compound 0.5 µM,0.669
same,relative viability,[5]; first compound 0.005 µM,0.406
same,relative viability,[5]; first compound 0.01581 µM,0.405
same,relative viability,[5]; first compound 0.05 µM,0.415
same,relative viability,[5]; first compound 0.1581 µM,0.464
same,relative viability,[5]; first compound 0.5 µM,0.4
same,relative viability,[6]; first compound 0.005 µM,0.609
same,relative viability,[6]; first compound 0.01581 µM,0.506
same,relative viability,[6]; first compound 0.1581 µM,0.459
same,relative viability,[6]; first compound 0.5 µM,0.575
Oc1nc(-c2ccc(C(F)(F)F)cc2)nc2c1CSCC2 [XAV939] + COc1cccc2cc(-c3nc([C@H]4CC[C@H](C(=O)O)CC4)n4ncnc(N)c34)[nH]c12 [OSI-027] (partner 0.5 µM),relative viability,[1]; first compound 0.08 µM,0.534
same,relative viability,[1]; first compound 0.253 µM,0.443
same,relative viability,[1]; first compound 0.8 µM,0.463
same,relative viability,[1]; first compound 2.53 µM,0.432
same,relative viability,[2]; first compound 0.08 µM,0.456
same,relative viability,[2]; first compound 0.253 µM,0.478
same,relative viability,[2]; first compound 0.8 µM,0.538
same,relative viability,[2]; first compound 2.53 µM,0.44
same,relative viability,[3]; first compound 0.08 µM,0.797
same,relative viability,[3]; first compound 0.253 µM,0.619
same,relative viability,[3]; first compound 0.8 µM,0.738
same,relative viability,[3]; first compound 2.53 µM,0.655
same,relative viability,[4]; first compound 0.08 µM,0.564
same,relative viability,[4]; first compound 0.253 µM,0.696
same,relative viability,[4]; first compound 0.8 µM,0.68
same,relative viability,[4]; first compound 2.53 µM,0.643
same,relative viability,[5]; first compound 0.08 µM,0.364
same,relative viability,[5]; first compound 0.253 µM,0.386
same,relative viability,[5]; first compound 0.8 µM,0.318
same,relative viability,[5]; first compound 2.53 µM,0.4
same,relative viability,[6]; first compound 0.08 µM,0.273
same,relative viability,[6]; first compound 0.8 µM,0.236
same,relative viability,[6]; first compound 2.53 µM,0.225
Oc1nc(-c2ccc(C(F)(F)F)cc2)nc2c1CSCC2 [XAV939] + Cc1cc(Nc2cc(N3CCN(C)CC3)nc(Sc3ccc(NC(=O)C4CC4)cc3)n2)n[nH]1 [Tozasertib] (partner 0.1 µM),relative viability,[1]; first compound 0.08 µM,0.576
same,relative viability,[1]; first compound 0.253 µM,0.402
same,relative viability,[1]; first compound 0.8 µM,0.444
same,relative viability,[1]; first compound 2.53 µM,0.504
same,relative viability,[2]; first compound 0.08 µM,0.189
same,relative viability,[2]; first compound 0.253 µM,0.205
same,relative viability,[2]; first compound 0.8 µM,0.19
same,relative viability,[2]; first compound 2.53 µM,0.211
same,relative viability,[3]; first compound 0.08 µM,0.452
same,relative viability,[3]; first compound 0.253 µM,0.382
same,relative viability,[3]; first compound 0.8 µM,0.394
same,relative viability,[3]; first compound 2.53 µM,0.368
same,relative viability,[4]; first compound 0.08 µM,0.6
same,relative viability,[4]; first compound 0.253 µM,0.529
same,relative viability,[4]; first compound 0.8 µM,0.568
same,relative viability,[4]; first compound 2.53 µM,0.638
same,relative viability,[5]; first compound 0.08 µM,0.403
same,relative viability,[5]; first compound 0.253 µM,0.414
same,relative viability,[5]; first compound 0.8 µM,0.386
same,relative viability,[5]; first compound 2.53 µM,0.373
same,relative viability,[6]; first compound 0.08 µM,0.664
same,relative viability,[6]; first compound 0.8 µM,0.453
same,relative viability,[6]; first compound 2.53 µM,0.275
